Test results: the supplement of paper PMC10307832

Legend:
Test in all cases: relative viability (nuclei count vs DMSO), 5 days (fraction); higher = more cells survive
RU-SKI 43 + Pictilisib = compound: CC[C@@H](C)CNCC(=O)N1CCC2=C([C@@H]1COC3=CC=CC(=C3)C)C=CS2 [RU-SKI 43] + CS(=O)(=O)N1CCN(Cc2cc3nc(-c4cccc5[nH]ncc45)nc(N4CCOCC4)c3s2)CC1 [Pictilisib] (partner 1 µM)
Procedure, shortened: (§1)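 Lung cancer cell lines were pin-tool dosed in 1536-well plates on the day after seeding, with either a lone drug or a fixed anchor-drug dose plus five library-drug doses (not always all listed) in √10 steps. Nuclei were counted on 4× images after 5 days. Relative viability is the ratio of treated-well to vehicle-well nuclei counts, with each value a median of duplicate plates.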

MK-8033 + Tozasertib = compound: Cn1cc(-c2cnc3ccc4ccc(CS(=O)(=O)NCc5ccccn5)cc4c(=O)c3c2)cn1 [MK-8033] + Cc1cc(Nc2cc(N3CCN(C)CC3)nc(Sc3ccc(NC(=O)C4CC4)cc3)n2)n[nH]1 [Tozasertib] (partner 0.1 µM)
Procedure, shortened: as §1

Irinotecan + Pictilisib = compound: CCc1c2c(nc3ccc(OC(=O)N4CCC(N5CCCCC5)CC4)cc13)-c1cc3c(c(=O)n1C2)COC(=O)[C@]3(O)CC [Irinotecan] + CS(=O)(=O)N1CCN(Cc2cc3nc(-c4cccc5[nH]ncc45)nc(N4CCOCC4)c3s2)CC1 [Pictilisib] (partner 1 µM)
Procedure, shortened: as §1

Irinotecan + Trametinib = compound: CCc1c2c(nc3ccc(OC(=O)N4CCC(N5CCCCC5)CC4)cc13)-c1cc3c(c(=O)n1C2)COC(=O)[C@]3(O)CC [Irinotecan] + CC(=O)Nc1cccc(-n2c(=O)n(C3CC3)c(=O)c3c(Nc4ccc(I)cc4F)n(C)c(=O)c(C)c32)c1 [Trametinib] (partner 0.02 µM)
Procedure, shortened: as §1

UMC-11 showed a relative viability (RU-SKI 43 + Pictilisib; first compound 0.1 µM) of 0.958, a relative viability (RU-SKI 43 + Pictilisib; first compound 0.3162 µM) of 1.11 and a relative viability (RU-SKI 43 + Pictilisib; first compound 1 µM) of 0.876. It also gave a relative viability (RU-SKI 43 + Pictilisib; first compound 3.162 µM) of 0.789, a relative viability (RU-SKI 43 + Pictilisib; first compound 10 µM) of 0.695 and a relative viability (MK-8033 + Tozasertib; first compound 0.02 µM) of 0.201. For the same cell line, the relative viability (MK-8033 + Tozasertib; first compound 0.2 µM) was 0.193, the relative viability (MK-8033 + Tozasertib; first compound 0.6325 µM) was 0.205 and the relative viability (MK-8033 + Tozasertib; first compound 2 µM) was 0.205. It also gave a relative viability (Irinotecan + Pictilisib; first compound 0.6325 µM) of 0.317, a relative viability (Irinotecan + Pictilisib; first compound 2 µM) of 0.532 and a relative viability (Irinotecan + Pictilisib; first compound 6.325 µM) of 0.215. The relative viability (Irinotecan + Pictilisib; first compound 20 µM) was 0.158, the relative viability (Irinotecan + Trametinib; first compound 0.6325 µM) was 0.32 and the relative viability (Irinotecan + Trametinib; first compound 2 µM) was 0.539. The relative viability (Irinotecan + Trametinib; first compound 6.325 µM) was 0.29 and the relative viability (Irinotecan + Trametinib; first compound 20 µM) was 0.216.
